Ends that are not written are not given here. Peptide text beside a SMILES is read from it.

This is an account of results in PMC10441178, “Antibiofilm assay for antimicrobial peptides combating the sulfate‐reducing bacteria Desulfovibrio vulgaris” (MicrobiologyOpen, 2023).

Series [1] deals with Desulfovibrio vulgaris biofilm. Format: cell-based, Desulfovibrio vulgaris DSM 644. To be noted: 6 h preincubation, then peptide (1 mg/mL to 1.95 µg/mL, twofold dilution), further 66 h, 37°C anaerobic; polished steel rivets; consistent for OD600 and OD570 (crystal violet); n = 3 per concentration. The method, then: D. vulgaris DSM 644 was cultivated in Postgate medium (DSMZ medium 63) with a modification of 0.004 g/L FeSO4 × 7H2O and 0.3 g/L trisodium citrate. The medium was flushed with nitrogen gas. Incubation was performed at 37°C without shaking. Steel […]660 4 × 15 mm (Würth-Gruppe) served as the growth surface. These were applied in the following pretreated stages: (1) mechanically untreated; (2) roughened: two turns with silicon carbide sandpaper with a grit size of 180; (3) polished: two turns with silicon carbide sandpaper with a sequential grit size of 320, 400, 600, 800, and 1200. The steel […] cleaned in acetone, 2-propanol, and ethanol (Carl Roth GmbH & Co. KG) for 5 min each using an ultrasonic bath, frequency 47 KHz (Branson Ultrasonic Corporation). […] Routine measurements of OD600 and OD570 were performed using the InfiniteM[…] plate reader (Tecan Group AG). For measurements in the anaerobic chamber, OD600 was measured with a Stratus microplate reader (Cerillo Inc.). […] Figure 2 Minimum biofilm inhibitory concentration (MBIC) assay for Desulfovibrio vulgaris: OD600 and OD570 of the challenge plate (72 h incubation) for different concentrations of four antimicrobial peptides: […]-33, Bactenecin, […]1 (black striped), and uninhibited sample (gray); mean and standard deviation were determined by propagation of error; asterisks indicate significant reduction (p = 0.005).

In series [2] the test system is Desulfovibrio vulgaris biofilm. In kind it is cell-based, Desulfovibrio vulgaris DSM 644. The protocol: D. vulgaris DSM 644 was cultivated in Postgate medium (DSMZ medium 63) with a modification of 0.004 g/L FeSO4 × 7H2O and 0.3 g/L trisodium citrate. The medium was flushed with nitrogen gas. Incubation was performed at 37°C without shaking. The preparation of the MBEC assay was similar to the MBIC. A measure of 120 μL of bacterial suspension was added per well as growth check (n = 8) or as AMP test (n = 6 per AMP concentration) and 120 μL of medium as sterile control (n = 8). The microtiter plate was incubated for 72 h. Afterward, the […] transferred to the challenge plate consisting of 120 μL of AMP solution (1 mg/mL to 1.95 μg/mL), 120 μL of medium for growth check (n = 8), 120 μL of medium (n = 4) or 120 μL of water (n = 2) or 120 μL of AMP with a concentration of 1 mg/mL (n = 2) for sterile control (in Figure A3, a pipetting scheme is shown). Incubation was performed for 24 h. The […] washed with 0.9% NaCl and half of them were stained with crystal violet (see MBIC). The other half was transferred to the recovery plate containing 120 μL of medium per well and placed in the ultrasonic bath for 30 min. The […] removed and the microtiter plate was incubated for 48 h. After the incubation period of 48 h, OD600 was measured. An overview of the individual steps of the MBIC/MBEC assay is shown in Figure 1.  Figure 5 Minimum biofilm eradication concentration (MBEC) assay for Desulfovibrio vulgaris: OD600 of the recovery plate (48 h incubation) and OD570 of the challenge plate (72 h incubation) for different concentrations of four antimicrobial peptides: […]-33, Bactenecin, […]1 (black striped), and uninhibited sample (gray); mean and standard deviation were determined by error propagation; asterisk indicates significant reduction (p = 0.005).

The nature of series [3]: in vitro. In kind it is in vitro ADME. The following applies: cells or culture medium. The protocol:
Figure 4 Long-term stability for the peptide […]1 in Postgate C medium (black) and in the supernatant of a 7-day-old culture of Desulfovibrio vulgaris (gray), analyzed with reversed-phase high-performance liquid chromatography; 100% peptide content corresponds with the peptide content at 0 h. Values are shown as means with standard deviation, n = 3.

Consider `CC[C@H](C)[C@H](NC(=O)[C@H](CCCNC(=N)N)NC(=O)[C@H](CS)NC(=O)[C@H](CC(C)C)NC(=O)[C@@H](N)CCCNC(=N)N)C(=O)N[C@H](C(=O)N[C@H](C(=O)N[C@H](C(=O)N[C@@H](CCCNC(=N)N)C(=O)N[C@H](C(=O)N[C@@H](CS)C(=O)N[C@@H](CCCNC(=N)N)C(=O)O)C(C)C)[C@@H](C)CC)C(C)C)C(C)C` [Bactenecin] (H-RLCRIVVIRVCR-OH; N-terminus and C-terminus assumed), for which the MBIC95% entry in series [1] is on record as “no biofilm inhibitory effects”. Further, the “Lowest peptide concentration with complete removal of the biofilm (total biofilm mass, OD570)” value in series [2] (72 h biofilm on steel rivets, challenge with peptide, crystal violet staining, OD570) is 500 µg/mL. Further, the “Effect on OD600 of recovery plate below the MBEC95%” value in series [2] (peptide concentrations 250 and 125 µg/mL) is “partial effect”. Further, the “Removal of total biofilm mass (OD570) at lower concentrations” value in series [2] (peptide concentrations 250 and 125 µg/mL, crystal violet, OD570) is “partial removal”.

As a reminder, the amount remaining is the share of the starting amount still present when the sample was taken. A high value points to greater stability. In series [3], FFGKVLKLIRKIF [DASamP1] displayed an amount remaining at 168 h of 70% and an amount remaining at 504 h of 56%.
